Assay results: patent publication US7622269B2, “Methods of screening tyramine- and octopamine-expressing cells for compounds and compositions having potential insect control activity” (Tyratech, Inc., priority 2004, dated 2009)

Tested on: octopamine synthesis mutant (iav) Drosophila melanogaster strain
Format: in vivo
Conditions: for toxicity in iav strain compared with wild type: in vivo; for % Mortality at LD50 of wild/type Drosophila melanogaster strain, iav: topical, 24 hour

Row | Structure (SMILES) | toxicity in iav strain compared with wild type | % Mortality at LD50 of wild/type Drosophila melanogaster strain, iav
1 | COC(=O)c1ccccc1O [methyl salicylate, 2-hydroxybenzoic acid methyl ester] | does not affect the toxicity | 46.6%
2 | OCC=Cc1ccccc1 [cinnamic alcohol, 3-phenyl-2-propen-1-ol] | remarkably increased | 80.0%
3 | CCC(=O)OCCc1ccccc1 [2-phenylethyl propionate] | remarkably increased | 80.0%
4 | C=CCc1ccc(O)c(OC)c1 [eugenol, 2-methoxy-4-(2-propenyl)phenol] | remarkably increased | 80.0%
5 | Cc1ccc(C(C)C)cc1 [p-cymene, methyl(1-methylethyl)benzene] | does not affect the toxicity | 40.0%
6 | CC(C)=CCCC(C)=CCO [geraniol, 3,7-dimethyl-2,6-octadien-1-ol] | does not affect the toxicity | 60.0%
